In patent US20250179103A1, “6-OXODECAHYDROPYRROLO[1,2-A][1,5]DIAZOCINE AND 6-OXODECAHYDRO-4H-PYRROLO[2,1-D][1,5]THIAZOCINE DERIVATIVES AS STAT3 AND STAT6 MODULATORS FOR THE TREATMENT OF CANCER AND INFLAMMATORY CONDITIONS” (Recludix Pharma, Inc., priority 2022, published 2025):

Legend:
[1] = target: T1, Recombinant STAT3 protein (STAT3(G127-I722)) (Homo sapiens, UniProt P40763); assay: STAT3 Fluorescence Polarization (FP) Assay; type: binding; settings: STAT3(G127-I722) 25 nM, probe 5-FAM-GpYLPQTV-NH2 2 nM, 45-minute incubation
T1 construct: Recombinant STAT3 protein (STAT3(G127-I722))
Summary of the method: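 STAT3(G127-I722), 25 nM, was mixed with 2 nM 5-FAM-GpYLPQTV-NH2 probe in HEPES pH 7.4 buffer with 1% DMSO and serially diluted compound. FP (mP) was read after 45 min at room temperature. IC50 came from nonlinear regression.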

[2] = target: T2, Recombinant STAT6 protein (STAT6(W123-T658)) (Homo sapiens, UniProt P42226); assay: STAT6 Fluorescence Polarization (FP) Assay; type: binding; settings: STAT6(W123-T658) 250 nM, probe 5-FAM-ApYKPFQDLI-NH2 2 nM, 45-minute incubation
T2 construct: Recombinant STAT6 protein (STAT6(W123-T658))
T2 sequence (P42226 123-658): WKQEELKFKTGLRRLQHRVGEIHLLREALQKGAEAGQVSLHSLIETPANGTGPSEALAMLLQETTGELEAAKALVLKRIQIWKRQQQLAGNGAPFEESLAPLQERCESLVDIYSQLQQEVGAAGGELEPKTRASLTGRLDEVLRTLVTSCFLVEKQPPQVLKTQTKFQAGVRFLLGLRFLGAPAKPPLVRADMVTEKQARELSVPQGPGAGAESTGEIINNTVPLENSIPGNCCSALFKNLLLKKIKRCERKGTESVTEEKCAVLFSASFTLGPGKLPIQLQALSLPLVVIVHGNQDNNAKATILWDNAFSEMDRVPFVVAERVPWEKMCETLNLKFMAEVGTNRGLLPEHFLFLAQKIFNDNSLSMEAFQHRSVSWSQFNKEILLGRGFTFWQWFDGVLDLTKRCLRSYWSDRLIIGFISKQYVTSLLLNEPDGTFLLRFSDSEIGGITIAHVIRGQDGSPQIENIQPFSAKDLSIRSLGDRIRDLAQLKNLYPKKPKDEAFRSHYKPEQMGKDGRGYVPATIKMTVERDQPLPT
Summary of the method: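 Displacement of a fluorescent phosphotyrosine peptide (5-FAM-ApYKPFQDLI-NH2, 2 nM) from STAT6(W123-T658) (250 nM), 1% DMSO, pH 7.4 HEPES buffer. After 45 min at room temperature, polarization (mP) was plotted versus log compound concentration and fitted by nonlinear regression to give IC50.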

T1 sequence (P40763 127-722): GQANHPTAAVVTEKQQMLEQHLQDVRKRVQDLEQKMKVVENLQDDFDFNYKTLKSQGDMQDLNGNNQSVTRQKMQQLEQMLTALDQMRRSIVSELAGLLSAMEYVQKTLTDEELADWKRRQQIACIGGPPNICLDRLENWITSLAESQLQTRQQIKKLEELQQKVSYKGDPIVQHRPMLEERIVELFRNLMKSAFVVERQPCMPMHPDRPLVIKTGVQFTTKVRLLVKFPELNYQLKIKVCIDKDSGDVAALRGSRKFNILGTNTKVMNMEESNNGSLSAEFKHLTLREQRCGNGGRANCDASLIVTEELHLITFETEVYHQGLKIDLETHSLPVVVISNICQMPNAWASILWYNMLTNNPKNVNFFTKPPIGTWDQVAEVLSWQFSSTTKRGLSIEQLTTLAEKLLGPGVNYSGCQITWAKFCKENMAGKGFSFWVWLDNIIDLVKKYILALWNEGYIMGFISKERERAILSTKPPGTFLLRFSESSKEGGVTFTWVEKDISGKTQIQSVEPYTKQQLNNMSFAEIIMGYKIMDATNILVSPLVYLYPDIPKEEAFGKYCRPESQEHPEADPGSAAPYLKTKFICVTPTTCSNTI

Compound	IC50 [1] [µM]	IC50 [2] [nM]
Cc1ccc2onc(C(=O)N3CC[C@H]4CC[C@@H](C(=O)N5C[C@H](c6cc[nH]c(=O)c6)CC56CC6)N4C(=O)[C@@H](NC(=O)c4ccc5ccc(C(F)(F)P(=O)(O)O)cc5c4)C3)c2c1 [Compound 381, (difluoro(7-(((5S,8S, 10aR)-3-(5-methylbenzo[d]isoxazole-3-carbonyl)-6-oxo-8-((S)-6-(2-oxo-1,2-dihydropyridin-4-yl)-4-azaspiro[2.4]heptane-4-carbonyl)decahydropyrrolo [1,2-a][1,5]diazocin-5-yl)carbamoyl)naphthalen-2-yl)methyl)phosphonic acid]	1 to 10	≤ 300
Cc1ccc2onc(C(=O)N3CC[C@H]4CC[C@@H](C(=O)N5C[C@H](c6ccn(C)c(=O)c6)CC56CC6)N4C(=O)[C@@H](NC(=O)c4ccc5ccc(C(F)(F)P(=O)(O)O)cc5c4)C3)c2c1 [Compound 382, (difluoro(7-(((5S,8S, 10aR)-8-((S)-6-(1-methyl-2-oxo-1,2-dihydropyridin-4-yl)-4-azaspiro[2.4]heptane-4-carbonyl)-3-(5-methylbenzo[d]isoxazole-3-carbonyl)-6-oxodecahydropyrrolo [1,2-a][1,5]diazocin-5-yl)carbamoyl)naphthalen-2-yl)methyl)phosphonic acid]	1 to 10	≤ 300
Cc1ccc2onc(C(=O)N3CC[C@H]4CC[C@@H](C(=O)N5C[C@@H](c6ccn(C)c(=O)c6)CC56CC6)N4C(=O)[C@@H](NC(=O)c4ccc5ccc(C(F)(F)P(=O)(O)O)cc5c4)C3)c2c1 [Compound 383, (difluoro(7-(((5S,8S, 10aR)-8-((R)-6-(1-methyl-2-oxo-1,2-dihydropyridin-4-yl)-4-azaspiro[2.4]heptane-4-carbonyl)-3-(5-methylbenzo[d]isoxazole-3-carbonyl)-6-oxodecahydropyrrolo [1,2-a][1,5]diazocin-5-yl)carbamoyl)naphthalen-2-yl)methyl)phosphonic acid]	1 to 10	≤ 300
Cc1ccc2onc(C(=O)N3CC[C@H]4CC[C@@H](C(=O)N5C[C@@H](c6cc[nH]c(=O)c6)CC56CC6)N4C(=O)[C@@H](NC(=O)c4ccc5ccc(C(F)(F)P(=O)(O)O)cc5c4)C3)c2c1 [Compound 385, (difluoro(7-(((5S,8S, 10aR)-3-(5-methyl-benzo[d]isoxazole-3-carbonyl)-6-oxo-8-((R)-6-(2-oxo-1,2-dihydro-pyridin-4-yl)-4-azaspiro [2.4]heptane-4-carbonyl)decahydro-pyrrolo[1,2-a][1,5]diazocin-5-yl)carbamoyl)naphthalen-2-yl)methyl) phosphonic acid]	1 to 10	≤ 300
Cc1ccc2onc(C(=O)N3CC[C@H]4CC[C@@H](C(=O)N5C(=O)N(c6cccnc6)C(=O)C56CC6)N4C(=O)[C@@H](NC(=O)c4ccc5ccc([C@H](F)P(=O)(O)O)cc5c4)C3)c2c1 [Compound 386, ((R)-(7-(((5S,8S, 10aR)-8-(5,7-dioxo-6-(pyridin-3-yl)-4,6-diazaspiro[2.4]heptane-4-carbonyl)-3-(5-methylbenzo[d]isoxazole-3-carbonyl)-6-oxodecahydropyrrolo [1,2-a][1,5]diazocin-5-yl)carbamoyl)naphthalen-2-yl)fluoromethyl)phosphonic acid]	> 10	≤ 300
Cc1ccc2onc(C(=O)N3CC[C@H]4CC[C@@H](C(=O)N5C[C@@H](c6ccn(C)c(=O)c6)CC56CC6)N4C(=O)[C@@H](NC(=O)c4ccc5ccc([C@H](F)P(=O)(O)O)cc5c4)C3)c2c1 [Compound 387, ((R)-fluoro(7-(((5S, 8S,10aR)-8-((R)-6-(1-methyl-2-oxo-1,2-dihydropyridin-4-yl)-4-azaspiro[2.4]heptane-4-carbonyl)-3-(5-methylbenzo[d]isoxazole-3-carbonyl)-6-oxodecahydro-pyrrolo[1,2-a][1,5]diazocin-5-yl)carbamoyl)naphthalen-2-yl)methyl) phosphonic acid]	> 10	≤ 300
Cc1ccc2onc(C(=O)N3CC[C@H]4CC[C@@H](C(=O)N5C[C@H](c6ccn(C)c(=O)c6)CC56CC6)N4C(=O)[C@@H](NC(=O)c4ccc5ccc([C@H](F)P(=O)(O)O)cc5c4)C3)c2c1 [Compound 390, ((R)-fluoro(7-(((5S, 8S,10aR)-8-((S)-6-(1-methyl-2-oxo-1,2-dihydropyridin-4-yl)-4-azaspiro[2.4]heptane-4-carbonyl)-3-(5-methylbenzo[d]isoxazole-3-carbonyl)-6-oxodecahydropyrrolo [1,2-a][1,5]diazocin-5-yl)carbamoyl)naphthalen-2-yl)methyl)phosphonic acid]	1 to 10	≤ 300
Cc1ccc2onc(C(=O)N3CC[C@H]4CC[C@@H](C(=O)N5C[C@H](c6ccn(C)c(=O)c6)CC56CC6)N4C(=O)[C@@H](NC(=O)c4ccc5ccc([C@@H](F)P(=O)(O)O)cc5c4)C3)c2c1 [Compound 391, ((S)-fluoro(7-(((5S, 8S,10aR)-8-((S)-6-(1-methyl-2-oxo-1,2-dihydropyridin-4-yl)-4-azaspiro[2.4]heptane-4-carbonyl)-3-(5-methylbenzo[d]isoxazole-3-carbonyl)-6-oxodecahydropyrrolo [1,2-a][1,5]diazocin-5-yl)carbamoyl)naphthalen-2-yl)methyl) phosphonic acid]	> 10	≤ 300
O=C(N[C@H]1CN(c2ccccn2)C[C@H]2CC[C@@H](C(=O)N3CCOCC3)N2C1=O)c1ccc2ccc(C(F)P(=O)(O)O)cc2c1 (stereo partly drawn) [Compound 393, (fluoro(7-(((4S,7S,9aR)-7-(morpholine-4-carbonyl)-5-oxo-2-(pyridin-2-yl)octahydro-1H-pyrrolo[1,2-a][1,4]diazepin-4-yl)carbamoyl)naphthalen-2-yl)methyl) phosphonic acid]	> 10	> 30000

Now from value to molecule:

IC50 [1] [µM]	IC50 [2] [nM]	Compound
> 10	300 to 3000	Cc1ccc2onc(C(=O)N3CC[C@H]4CC[C@@H](C(=O)N5CCOCC5)N4C(=O)[C@@H](NC(=O)c4ccc5c(C#N)cc(CP(=O)(O)O)cc5c4)C3)c2c1 [Compound 384, ((4-cyano-7-(((5S,8S, 10aR)-3-(5-methylbenzo[d]isoxazole-3-carbonyl)-8-(morpholine-4-carbonyl)-6-oxodecahydropyrrolo [1,2-a][1,5]diazocin-5-yl)carbamoyl)naphthalen-2-yl)methyl) phosphonic acid]
> 10	300 to 3000	COc1cc(C(=O)N[C@H]2CN(C(=O)c3noc4ccc(C)cc34)CC[C@H]3CC[C@@H](C(=O)N4CCOCC4)N3C2=O)cc2cc(CP(=O)(O)O)ccc12 [Compound 388, ((5-methoxy-7-(((5S, 8S,10aR)-3-(5-methylbenzo[d]isoxazole-3-carbonyl)-8-(morpholine-4-carbonyl)-6-oxodecahydropyrrolo [1,2-a][1,5]diazocin-5-yl)carbamoyl)naphthalen-2-yl)methyl) phosphonic acid]
> 10	300 to 3000	Cc1cc(Cl)cc(C(=O)N2CC[C@H](NC(=O)c3ccc4ccc(C(F)P(=O)(O)O)cc4c3)C(=O)N3[C@H](CC[C@H]3C(=O)N3CCOCC3)C2)c1 (stereo partly drawn) [Compound 389, ((7-(((5S,8S,10aR)-2-(3-chloro-5-methyl-benzoyl)-8-(morpholine-4-carbonyl)-6-oxodecahydropyrrolo [1,2-a][1,4]diazocin-5-yl)carbamoyl)naphthalen-2-yl)fluoromethyl) phosphonic acid]
1 to 10	3000 to 30000	O=C(N[C@H]1CN(c2cc3ccccc3cn2)CC[C@H]2CC[C@@H](C(=O)N3CCOCC3)N2C1=O)c1ccc2ccc(C(F)P(=O)(O)O)cc2c1 (stereo partly drawn) [Compound 392, (fluoro(7-(((5S,8S, 10aR)-3-(isoquinolin-3-yl)-8-(morpholine-4-carbonyl)-6-oxodecahydropyrrolo [1,2-a][1,5]diazocin-5-yl)carbamoyl)naphthalen-2-yl)methyl)phosphonic acid]
> 10	3000 to 30000	Cc1ccc2onc(C(=O)N3CC[C@H]4CC[C@@H](C(=O)N5CCOCC5)N4C(=O)[C@@H](NC(=O)c4ccc5cnc(CP(=O)(O)O)cc5c4)C3)c2c1 [Compound 394, ((6-(((5S,8S,10aR)-3-(5-methylbenzo [d]isoxazole-3-carbonyl)-8-(morpholine-4-carbonyl)-6-oxodecahydropyrrolo [1,2-a][1,5]diazocin-5-yl)carbamoyl)isoquinolin-3-yl)methyl) phosphonic acid]
